Measurements as given in patent US11180462B2, “Microbiocidal oxadiazole derivatives” (SYNGENTA PARTICIPATIONS AG, priority 2015, dated 2021).

Tests used:
[1] = test system: Puccinia recondita f. Sp. Tritici; assay: Fungicidal activity against Puccinia recondita f. sp. tritici / wheat / leaf disc preventative (brown rust); format: in vivo; conditions: foliar, 200 ppm in the applied formulation, wheat leaf segments, preventative, compared to untreated control leaf disks, read-out: disease control
Summary of the method: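 Compound application precedes infection: segments of wheat cv. Kanzler, sprayed at 200 ppm, are inoculated with a spore suspension after 1 day. Incubation is at 19° C. with 75% relative humidity and 12 h light/12 h darkness, and control versus untreated leaves is rated 7 to 9 days post-application.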

[2] = test system: Phakopsora Pachyrhizi; assay: Fungicidal activity against Phakopsora pachyrhizi / soybean / leaf disc preventative (Asian soybean rust); format: in vivo; conditions: foliar, 200 ppm in the applied formulation, soybean leaf disks, compared to untreated control leaf disks, read-out: disease control
Summary of the method: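 Preventative soybean leaf-disc test: discs on water agar sprayed with diluted formulated compound, inoculated one day later with spores on the lower surface. Held 24–36 h dark at 20°C, 75% rh, then 12 h light/day; percent disease control versus untreated discs scored 12–14 days after application.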

[3] = test system: Glomerella lagenarium (Colletotrichum lagenarium); assay: Fungicidal activity against Glomerella lagenarium (Colletotrichum lagenarium) liquid culture / cucumber / preventative (anthracnose); format: cell-based; conditions: Colletotrichum orbiculare; 20 ppm in the applied formulation; liquid culture (PDB), growth inhibition measured photometrically after 3 to 4 days; compared to untreated control; read-out: disease control
Summary of the method: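 Photometric read-out of fungal growth after 2–7 days, expressed as percent antifungal activity versus untreated check. Cryo-stored conidia in PDB; compound at 20 ppm; dark, 24 °C, 96% RH.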

[4] = test system: Puccinia recondita f. Sp. Tritici; assay: Fungicidal activity against Puccinia recondita f. sp. tritici / wheat / leaf disc curative (brown rust); format: in vivo; conditions: foliar, 24 h, 200 ppm in the applied formulation, wheat leaf segments, curative (applied 1 day after inoculation), compared to untreated control leaf disks, read-out: disease control
Summary of the method: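 Scoring is percent disease control relative to untreated segments, made 6 to 8 days after treatment. Wheat (cv. Kanzler) leaf segments received the formulated, water-diluted compound one day post-inoculation with spores, having been kept dark at 19° C and 75% RH, then incubated under 12 h light/12 h dark at the same temperature and humidity.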

CCC(C)C(=O)N(Cc1ccc(-c2noc(C(F)(F)F)n2)cc1)Cc1ccco1 (stereo not shown) [Compound 1.466]
≥ 80%: pest or weed control at 200 ppm [1] | pest or weed control at 200 ppm [2] | inhibition of growth at 20 ppm [3] | pest or weed control at 200 ppm [4]

COC(C)C(=O)N(Cc1ccc(-c2noc(C(F)(F)F)n2)cc1)Cc1ccco1 (stereo not shown) [Compound 1.472, N-(2-furylmethyl)-2-methoxy-N-[[4-[5-(trifluoromethyl)-1,2,4-oxadiazol-3-yl]phenyl]methyl]-propanamide]
≥ 80%: pest or weed control at 200 ppm [1] | pest or weed control at 200 ppm [2] | inhibition of growth at 20 ppm [3] | pest or weed control at 200 ppm [4]

C=CCN(Cc1ccc(-c2noc(C(F)(F)F)n2)cc1)C(=O)CCOC [Compound 1.476, N-allyl-3-methoxy-N-[[4-[5-(trifluoromethyl)-1,2,4-oxadiazol-3-yl]phenyl]methyl]-propanamide]
≥ 80%: pest or weed control at 200 ppm [1] | pest or weed control at 200 ppm [2] | inhibition of growth at 20 ppm [3] | pest or weed control at 200 ppm [4]

C=CCN(Cc1ccc(-c2noc(C(F)(F)F)n2)cc1)C(=O)CC [Compound 1.477, N-allyl-N-[[4-[5-(trifluoromethyl)-1,2,4-oxadiazol-3-yl]phenyl]methyl]-propanamide]
≥ 80%: pest or weed control at 200 ppm [1] | pest or weed control at 200 ppm [2] | inhibition of growth at 20 ppm [3] | pest or weed control at 200 ppm [4]

C=CCN(Cc1ccc(-c2noc(C(F)(F)F)n2)cc1)C(=O)C1CCC1 [Compound 1.478, N-allyl-N-[[4-[5-(trifluoromethyl)-1,2,4-oxadiazol-3-yl]phenyl]methyl]-cyclobutane-carboxamide]
≥ 80%: pest or weed control at 200 ppm [1] | pest or weed control at 200 ppm [2] | inhibition of growth at 20 ppm [3] | pest or weed control at 200 ppm [4]

C=CCN(Cc1ccc(-c2noc(C(F)(F)F)n2)cc1)C(=O)COC [Compound 1.479, N-allyl-2-methoxy-N-[[4-[5-(trifluoromethyl)-1,2,4-oxadiazol-3-yl]phenyl]methyl]-acetamide]
≥ 80%: pest or weed control at 200 ppm [1] | pest or weed control at 200 ppm [2] | inhibition of growth at 20 ppm [3] | pest or weed control at 200 ppm [4]

C=CCN(Cc1ccc(-c2noc(C(F)(F)F)n2)cc1)C(=O)C1CC1C (stereo not shown) [Compound 1.480, N-allyl-2-methyl-N-[[4-[5-(trifluoromethyl)-1,2,4-oxadiazol-3-yl]phenyl]methyl]-cyclopropane-carboxamide]
≥ 80%: pest or weed control at 200 ppm [1] | pest or weed control at 200 ppm [2] | inhibition of growth at 20 ppm [3] | pest or weed control at 200 ppm [4]

C=CCN(Cc1ccc(-c2noc(C(F)(F)F)n2)cc1)C(=O)C(C)C [Compound 1.483, N-allyl-2-methyl-N-[[4-[5-(trifluoromethyl)-1,2,4-oxadiazol-3-yl]phenyl]methyl]-propanamide]
≥ 80%: pest or weed control at 200 ppm [1] | pest or weed control at 200 ppm [2] | inhibition of growth at 20 ppm [3] | pest or weed control at 200 ppm [4]

C=CCN(Cc1ccc(-c2noc(C(F)(F)F)n2)cc1)C(=O)C1CC1(F)F (stereo not shown) [Compound 1.484, N-allyl-2,2-difluoro-N-[[4-[5-(trifluoromethyl)-1,2,4-oxadiazol-3-yl]phenyl]methyl]-cyclopropane-carboxamide]
≥ 80%: pest or weed control at 200 ppm [1] | pest or weed control at 200 ppm [2] | inhibition of growth at 20 ppm [3] | pest or weed control at 200 ppm [4]

C=CCN(Cc1ccc(-c2noc(C(F)(F)F)n2)cc1)C(=O)CCC [Compound 1.485, N-allyl-N-[[4-[5-(trifluoromethyl)-1,2,4-oxadiazol-3-yl]phenyl]methyl]-butanamide]
≥ 80%: pest or weed control at 200 ppm [1] | pest or weed control at 200 ppm [2] | inhibition of growth at 20 ppm [3] | pest or weed control at 200 ppm [4]

C=CCN(Cc1ccc(-c2noc(C(F)(F)F)n2)cc1)C(=O)C(C)CC (stereo not shown) [Compound 1.486, N-allyl-2-methyl-N-[[4-[5-(trifluoromethyl)-1,2,4-oxadiazol-3-yl]phenyl]methyl]-butanamide]
≥ 80%: pest or weed control at 200 ppm [1] | pest or weed control at 200 ppm [2] | inhibition of growth at 20 ppm [3] | pest or weed control at 200 ppm [4]

C=CCN(Cc1ccc(-c2noc(C(F)(F)F)n2)cc1)C(=O)CCCOC [Compound 1.487, N-allyl-4-methoxy-N-[[4-[5-(trifluoromethyl)-1,2,4-oxadiazol-3-yl]phenyl]methyl]-butanamide]
≥ 80%: pest or weed control at 200 ppm [1] | pest or weed control at 200 ppm [2] | inhibition of growth at 20 ppm [3] | pest or weed control at 200 ppm [4]

C=CCN(Cc1ccc(-c2noc(C(F)(F)F)n2)cc1)C(=O)C1(C)COC1 [Compound 1.488, N-allyl-3-methyl-N-[[4-[5-(trifluoromethyl)-1,2,4-oxadiazol-3-yl]phenyl]methyl]-oxetane-3-carboxamide]
≥ 80%: pest or weed control at 200 ppm [1] | pest or weed control at 200 ppm [2] | inhibition of growth at 20 ppm [3] | pest or weed control at 200 ppm [4]

C=CCN(Cc1ccc(-c2noc(C(F)(F)F)n2)cc1)C(=O)C1CCCO1 (stereo not shown) [Compound 1.489, N-allyl-N-[[4-[5-(trifluoromethyl)-1,2,4-oxadiazol-3-yl]phenyl]methyl]-tetrahydrofuran-2-carboxamide]
≥ 80%: pest or weed control at 200 ppm [1] | pest or weed control at 200 ppm [2] | inhibition of growth at 20 ppm [3] | pest or weed control at 200 ppm [4]

C=CCN(Cc1ccc(-c2noc(C(F)(F)F)n2)cc1)C(=O)C1CC1F (stereo not shown) [Compound 1.491, N-allyl-2-fluoro-N-[[4-[5-(trifluoromethyl)-1,2,4-oxadiazol-3-yl]phenyl]methyl]-cyclopropane-carboxamide]
≥ 80%: pest or weed control at 200 ppm [1] | pest or weed control at 200 ppm [2] | inhibition of growth at 20 ppm [3] | pest or weed control at 200 ppm [4]

C=CCN(Cc1ccc(-c2noc(C(F)(F)F)n2)cc1)C(=O)C(C)OC (stereo not shown) [Compound 1.492, N-allyl-2-methoxy-N-[[4-[5-(trifluoromethyl)-1,2,4-oxadiazol-3-yl]phenyl]methyl]-propanamide]
≥ 80%: pest or weed control at 200 ppm [1] | pest or weed control at 200 ppm [2] | inhibition of growth at 20 ppm [3] | pest or weed control at 200 ppm [4]

C=CCN(Cc1ccc(-c2noc(C(F)(F)F)n2)cc1)C(=O)C1OCCO1 [Compound 1.493, N-allyl-N-[[4-[5-(trifluoromethyl)-1,2,4-oxadiazol-3-yl]phenyl]methyl]-1,3-dioxolane-2-carboxamide]
≥ 80%: pest or weed control at 200 ppm [1] | pest or weed control at 200 ppm [2] | inhibition of growth at 20 ppm [3] | pest or weed control at 200 ppm [4]

C=CCN(Cc1ccc(-c2noc(C(F)(F)F)n2)cc1)C(=O)C1CC1 [Compound 1.494, N-allyl-N-[[4-[5-(trifluoromethyl)-1,2,4-oxadiazol-3-yl]phenyl]methyl]-cyclopropane-carboxamide]
≥ 80%: pest or weed control at 200 ppm [1] | pest or weed control at 200 ppm [2] | inhibition of growth at 20 ppm [3] | pest or weed control at 200 ppm [4]

CCN(Cc1ccc(-c2noc(C(F)(F)F)n2)cc1)C(=O)C1CCCC1 [Compound 1.495, N-ethyl-N-[[4-[5-(trifluoromethyl)-1,2,4-oxadiazol-3-yl]phenyl]methyl]-cyclopentane-carboxamide]
≥ 80%: pest or weed control at 200 ppm [1] | pest or weed control at 200 ppm [2] | inhibition of growth at 20 ppm [3] | pest or weed control at 200 ppm [4]
